Data on eleven molecules can be found in ChEMBL document CHEMBL1156354, “Anti-AIDS agents. 48.(1) Anti-HIV activity of moronic acid derivatives and the new melliferone-related triterpenoid isolated from Brazilian propolis” (J Nat Prod, 2001).

Structures are written as SMILES. In brackets after ≈: the same amount, converted by molar mass. A value given as a limit tells only on which side of the number the result lay.

Series [1] relates to Human immunodeficiency virus 1. The series is described as follows: Antiviral activity against HIV1 3B infected in human H9 cells assessed as inhibition of viral p24 antigen levels after 4 days by ELISA. Format: functional, organism-based.
For series [2], the system named is H9. The series is described as follows: Cytotoxicity against human H9 cells. The class given is cell-based.
Series [3] can be described thus: Therapeutic index, ratio of IC50 for human H9 cells to EC50 of HIV1 3B. The class given is cell-based. The settings on record: for Ratio IC50/EC50: h9; for selectivity ratio: H9 cells, HIV-1 3B, read-out: Ratio IC50/EC50.
Where [4] appears, read: Human immunodeficiency virus 1, 3B, H9, 96 h, read-out: EC50.

`Cc1cn([C@H]2C[C@H](N=[N+]=[N-])[C@@H](CO)O2)c(=O)[nH]c1=O` [ZIDOVUDINE]: the EC50 in series [1] (setting [4]) worked out at 0.00289 µg/mL (≈ 0.0108 µM).

In series [2], `COc1cc(C=O)ccc1O` [VANILLIN] displayed a 50% inhibitory concentration (IC50) of more than 100 µg/mL. For the same molecule, in series [1] (h9), the half-maximal effective concentration (EC50) entry is reported as “Not Active”. Further, the “Ratio IC50/EC50” value in series [3] is “Not Active”.

In turn, `C/C(=C/CC[C@@H](C)[C@H]1CC[C@@]2(C)C3=C(CC[C@]12C)[C@@]1(C)CCC(=O)C(C)(C)[C@@H]1CC3)C(=O)O` [ANWUWEIZONIC ACID] came in with an IC50 in series [2] of 2.14 µg/mL (≈ 4.71 µM). Also, the EC50 entry in series [1] (h9) is “Not Active”. The “Ratio IC50/EC50” value in series [3] is listed as “Not Active”.

As to `CC1(C)C=C2[C@H]3CC[C@@H]4[C@@]5(C)CC[C@H](O)C(C)(C)[C@@H]5CC[C@@]4(C)[C@]3(C)CC[C@@]2(C(=O)O)CC1` [MOROLIC ACID], the IC50 in series [2] amounted to 22.1 µg/mL (≈ 48.4 µM). Besides, in series [1] (setting [4]), the 50% effective concentration (EC50) came to 2.7 µg/mL (≈ 5.91 µM). In addition, the selectivity ratio in series [3] worked out at 8.17.

Molecule `C=C(COC(C)=O)[C@H]1Cc2cc(C(C)=O)ccc2O1` came in with a half-maximal inhibitory concentration (IC50) in series [2] of 2.07 µg/mL (≈ 7.95 µM). Besides, in series [1] (h9), the concentration giving a half-maximal response (EC50) result is reported as “Not Active”. Besides, the “Ratio IC50/EC50” value in series [3] is “Not Active”.

In series [2], `CCC(=O)c1ccc(O)c(OC)c1` showed an IC50 of 18.8 µg/mL (≈ 104 µM). Also, the EC50 entry in series [1] (h9) is on record as “Not Active”. Moreover, in series [3], the “Ratio IC50/EC50” value was “Not Active”.

The molecule `CC1(C)CC[C@@]23CC[C@]4(C)[C@@](C=C[C@@H]5[C@@]6(C)CCC(=O)C(C)(C)[C@@H]6CC[C@]54C)(OC2=O)[C@@H]3C1` [MELLIFERONE] yielded a half-inhibitory concentration (IC50) in series [2] of 0.205 µg/mL (≈ 0.453 µM). The half-maximal effective concentration (EC50) entry in series [1] (h9) was “Not Active”. Besides, the “Ratio IC50/EC50” value in series [3] was “Not Active”.

As for `CC1(C)C=C2[C@H]3CC[C@@H]4[C@@]5(C)CC[C@H](OC(=O)CC(C)(C)C(=O)O)C(C)(C)[C@@H]5CC[C@@]4(C)[C@]3(C)CC[C@@]2(C(=O)O)CC1`, half-maximal inhibition in series [2] (IC50) was put at 18.1 µg/mL (≈ 30.9 µM). Moreover, the EC50 in series [1] (setting [4]) was 1 µg/mL (≈ 1.71 µM). Besides, the selectivity ratio in series [3] turned out to be 18.

With `CC1(C)C=C2[C@H]3CC[C@@H]4[C@@]5(C)CCC(=O)C(C)(C)[C@@H]5CC[C@@]4(C)[C@]3(C)CC[C@@]2(C(=O)O)CC1` [MORONIC ACID], the concentration for half-maximal inhibition (IC50) in series [2] stood at 18.6 µg/mL (≈ 40.9 µM). Further, in series [1] (setting [4]), the concentration giving a half-maximal response (EC50) is less than 0.1 µg/mL. Besides, in series [3], the selectivity ratio is more than 186.

In turn, `C=C(C)[C@@H]1CC[C@]2(C(=O)O)CC[C@]3(C)[C@H](CC[C@@H]4[C@@]5(C)CCC(=O)C(C)(C)[C@@H]5CC[C@]43C)[C@@H]12` [BETUNOLIC ACID] had a half-inhibitory concentration (IC50) in series [2] of 1.8 µg/mL (≈ 3.96 µM). Moreover, the EC50 in series [1] (setting [4]) came to 0.22 µg/mL (≈ 0.484 µM). In addition, in series [3], the selectivity ratio turned out to be 8.

In series [2], `COc1ccc(/C=C/C=O)cc1OC` [3,4-DIMETHOXY CINNAMALDEHYDE] yielded an IC50 of 18.9 µg/mL (≈ 98.3 µM). Besides, in series [1] (setting [4]), the EC50 came out at 2.19 µg/mL (≈ 11.4 µM). Further, in series [3], the selectivity ratio came out at 8.62.

The term EC50 denotes the concentration giving half of the maximal effect. By IC50 is commonly meant the point on the concentration scale where inhibition reaches its midpoint. Higher therefore signals weaker potency in that assay.
